For 1 compound, IC50 results are on record in patent publication EP4786487A1, “PEPTIDE” (Peptidream Inc, priority 2023, dated 2025).

Molecules are shown by their SMILES. Starred links: 1 amine or outer side, 2 acyl side, 3 side chain; linkers in the order of their positions; H or OH if unused. Positions of bridges follow the written chain, without caps; N, C: chain ends. Non-standard residues stand in square brackets, D forms with d. Residues, ends and D or L forms follow the SMILES beside them. Phe(3-OCH2COOH) = N[C@@H](Cc1cccc(OCC(=O)O)c1)C(=O)O; Phe(4-COOH) = N[C@@H](Cc1ccc(C(=O)O)cc1)C(=O)O; Gly(N(CH2)3COOH) = O=C(O)CCCNCC(=O)O; X1 = CCCCCCC[C@H](N[*:1])C(=O)[*:2]; NMeF = CN[C@@H](Cc1ccccc1)C(=O)O; NMeA = CN[C@@H](C)C(=O)O

The experiment deals with T1, Myostatin (Homo sapiens, UniProt O14793).
T1 construct: active myostatin (also called mature myostatin) is a homodimer consisting of two C-terminal growth factor domains; purchased R&D systems 788-G8/CF
T1 sequence (O14793 267-375): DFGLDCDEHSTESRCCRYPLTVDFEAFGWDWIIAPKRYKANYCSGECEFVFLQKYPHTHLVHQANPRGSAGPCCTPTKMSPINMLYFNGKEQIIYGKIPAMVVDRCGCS
The experiment can be described thus: Reporter gene assay for myostatin signaling in HepG2 cell line, Evaluation Procedure (1), myostatin inhibition. In kind it is cell-based. Conditions: Method A: Myostatin 10 ng/mL; read-out: IC50 (Luciferase) Myostatin HepG2. Put shortly:
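IC50 derived from One-Glo luciferase luminescence after 20–24 h at 37 °C. Peptides titrated 4-fold at 0.006–100 nmol/L against myostatin or 0.12–2000 nmol/L against GDF-11 in HepG2 cells carrying a transfected CAGA12-luciferase reporter, kept in 0.1% BSA EMEM.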

Regarding `CCCCCCC[C@@H]1NC(=O)[C@H](Cc2ccccc2)N(C)C(=O)[C@H](CCCNC(=N)N)NC(=O)[C@H](Cc2ccc(C(=O)O)cc2)NC(=O)[C@H](Cc2cccc(OCC(=O)O)c2)NC(=O)[C@H](C)N(C)C(=O)[C@H]([C@@H](C)CC)NC(=O)[C@H](Cc2ccccc2)N(C)C(=O)[C@H](Cc2ccc(O)cc2)NC(=O)[C@H](Cc2c[nH]c3ccccc23)NC(=O)[C@H](C)NC(=O)CN(CCCC(=O)O)C(=O)CSC[C@H](C(=O)O)NC(=O)[C@H](Cc2ccccc2)N(C)C(=O)[C@H](C)N(C)C1=O` [Myostatin_99_v145] ({CH2CO}-[Gly(N(CH2)3COOH)]AWY[NMeF]I[NMeA][Phe(3-OCH2COOH)][Phe(4-COOH)]R[NMeF][X1][NMeA][NMeF][dC]-OH; thioether N-15), the IC50 turned out to be 1.6 nM.
